Type in all cases: cell-based
For data set [1], the system named is Huh-7 cells harboring replicon 2A. Briefly: Cytotoxicity in replicon 2A cells. Particulars: HCV subtype 2A replicon. The method, then:
(§1) Compounds were also tested in Huh-7 cells harboring sub-genomic reporter replicons derived from HCV subtypes 1B and 2A (ref.: Stuyver, L. J.; Whitaker, T.; McBrayer, T. R.; Hernandez-Santiago, B. I.; Lostia, S.; Tharnish, P. M.; Ramesh, M.; Chu, C. K.; Jordan, R.; Shi, J. X.; Rachakonda, S.; Watanabe, K. A.; Otto, M. J.; Schinazi, R. F. Antimicrob. Agents Chemother. 2003, 47, 244-254).

The test system of data set [2] is Huh-7 cells harboring replicon 1B. Briefly: Cytotoxicity in replicon 1B cells. Particulars: HCV subtype 1B replicon. The method, then:
as §1

For another data set, the system named is K562-TAX. Briefly: Cytostatic/cytotoxic MTT assay, K562-TAX. Particulars: Homo sapiens, paclitaxel resistant subline, 72 h, read-out: MTT, IC50 K562-TAX. An excerpt: Unless otherwise stated, all cells were purchased from the […] (ATCC). The CCRF-CEM line is derived from T lymphoblastic leukemia, evincing high chemosenzitivity, K562 represent cells from a […] patient sample with bcr-abl translocation, HCT116 is colorectal tumor cell line and its p53 gene knock-down counterpart (HCT116p53−/−, Horizon Discovery, UK) is a model of human cancers with p53 inactivation frequently associated with poor prognosis, A549 cell line is lung adenocarcinoma. The daunorubicin resistant subline of CCRF-CEM cells (CEM-DNR bulk) and paclitaxel resistant subline K562-TAX were selected in our laboratory by cultivation of maternal cell lines in increasing concentrations of daunorubicine or paclitaxel, respectively. The CEM-DNR cells overexpress mrp-1 and mdr-1 genes, while K562-TAX cells overexpress mdr-1 only. Both proteins belong to the family of ABC transporters and are involved in the primary and/or acquired multidrug resistance phenomenon (ref.: Gottesman, M. M.; Fojo, T.; Bates, S. E. Multidrug resistance in cancer: role of ATP-dependent transporters. Nat. Rev. Cancer. 2002, 2, 48-58. (b) Noskova, V.; Dzubak, P.; Kuzmina, G.; Ludkova, A.; Stehlik, D.; Trojanec, R.; Janostakova, A.; Korinkova, G.; Mihal, V.; Hajduch, M. In vitro chemoresistance profile and expression/function of MDR associated proteins in resistant cell lines derived from CCRF-CEM, K562, A549 and MDA MB 231 parental cells. Neoplasma 2002, 49, 418-425). Non-malignant MRC-5 and BJ cells, derived from normal human fibroblasts, were used as controls. The cells were maintained in Nunc/Corning 80 cm^2 plastic tissue culture flasks and cultured in cell culture medium (DMEM/RPMI 1640 with 5 g/L glucose, 2 mM glutamine, 100 U/mL penicillin, 100 µg/mL streptomycin, 10% fetal calf serum, and NaHCO3). Cell suspensions were prepared and diluted according to the particular cell type and the expected target cell density (25,000-30,000 cells/well based on cell growth characteristics). Cells were added by pipette (80 L) into 96-well microtiter plates. Inoculates were allowed a pre-incubation period of 24 h at 37° C. and 5% CO2 for stabilization. Four-fold dilutions, in 20-L aliquots, of the intended test concentration were added to the microtiter plate walls at time zero. All test compound concentrations were examined in duplicate. Incubation of the cells with the test compounds lasted for 72 h at 37° C., in a 5% CO2 atmosphere at 100% humidity. At the end of the incubation period, the cells were assayed using MTT. Aliquots (10 L) of the MTT stock solution (5 mg/ml) were pipetted into each well and incubated for another 1-4 h. After this incubation period the formazan produced was dissolved by addition of 100 µL/well of 10% aq SDS (pH 5.5), followed by a further incubation at 37° C. overnight. The optical density was measured at 540 nm. The IC50 value, the drug concentration inhibiting the cell growth by 50%, was calculated from appropriate dose-response curves.
In vitro cytotoxic/cytostatic activity final nucleosides 1-5 was initially evaluated against […] cell lines derived from human solid tumors including lung (A549 cells) and colon (HCT116 and HCT116p53−/−) carcinomas, as well as leukemia cell lines (CCRF-CEM, CEM-DNR, K562 and K562-TAX) and, for comparison, non-malignant BJ and MRC-5 fibroblasts. Concentrations inhibiting the cell growth by 50% (IC50) were determined using a quantitative metabolic staining with 3-(4,5-dimethylthiazol-2-yl)-2,5-diphenyltetrazolium bromide (MTT) (ref.: Denizot, F.; Lang, R. Rapid colorimetric assay for cell growth and survival: Modifications to the tetrazolium dye procedure giving improved sensitivity and reliability. J. Immunol. Meth. 1986, 89, 271-277) following a 3-day treatment.
Multidrug resistance is a major therapeutic problem in cancer chemotherapy. […]

The subject of another data set is HepG2. Briefly: XTT cytotoxicity assay, HepG2. Particulars: Homo sapiens, HepG2; 72 h incubation; read-out: XTT, IC50 HepG2. As for the experimental part: HL-60, Hela S3 and HepG2 cell lines (ATCC) were grown in RPMI-1640 or DMEM medium supplemented with 10% fetal calf serum, […] of streptomycin, 200 U/mL of penicillin G and 4 mM glutamine in a humidified atmosphere containing 5% CO2 at 37° C. Sensitivity of these cell lines to the synthesized compounds was assessed with the use of XTT cell proliferation kit II (Roche Diagnostics GmbH, Mannheim, Germany) according to the manufacturer's instructions. Briefly, cells were seeded in a 96-well plate at a density of 10,000 cells per well (90 μL). After 24 h, 10 μL of the tested compounds were added to the culture media at desired concentration range and incubated for 72 h. After that 50 μL of the XTT solution was added (1 mg/mL XTT+0.383 mg/mL N-methyl dibenzopyrazine methyl sulfate). The absorbance was recorded at 495 nm following a 2 h-incubation with the dye. IC50 values were determined by non-linear regression method using GraphPad Prism version 5.00 for Windows (GraphPad Software, La Jolla, Calif., USA).

For orientation: CC50 means the concentration giving 50% cytotoxicity. What is called IC50 is the point on the concentration scale where inhibition reaches its midpoint. For `COc1ncnc2c1c(-c1cc3ccccc3o1)cn2[C@@H]1O[C@H](CO)[C@@H](O)[C@H]1O` [Compound 1f, 5-(Benzofuran-2-yl)-4-methoxy-7-(β-D-ribofuranosyl)-7H-pyrrolo[2,3-d]pyrimidine], the CC50 in data set [1] and in data set [2] was greater than 44 µM each time. For the same molecule, the values for the 50% inhibitory concentration (IC50) in the data set on K562-TAX and with HepG2 were 13.1 µM and greater than 20 µM, respectively.
Take `C#Cc1cn([C@@H]2O[C@H](CO)[C@@H](O)[C@H]2O)c2ncnc(OC)c12` [Compound 1g, 5-Ethynyl-4-methoxy-7-(β-D-ribofuranosyl)-7H-pyrrolo[2,3-d]pyrimidine]: the cytotoxic concentration (CC50) in data set [1] and in data set [2] was greater than 44 µM each time. In addition, the values for the IC50 in the data set with K562-TAX and in the data set with HepG2 were 0.38 µM and 12.7 µM, respectively.
In the case of `CSc1ncnc2c1c(-c1cccs1)cn2[C@@H]1O[C@H](CO)[C@@H](O)[C@H]1O` [Compound 2c, 4-Methylsulfanyl-7-(β-D-ribofuranosyl)-5-(thiophen-2-yl)-7H-pyrrolo[2,3-d]pyrimidine], the CC50 in data set [1] and in data set [2] was greater than 44 µM in each case. Also, the IC50 in the data set on K562-TAX and in the data set on HepG2 was greater than 20 µM each time.
`CSc1ncnc2c1c(-c1cc3ccccc3o1)cn2[C@@H]1O[C@H](CO)[C@@H](O)[C@H]1O` [Compound 2f, 5-(Benzofuran-2-yl)-4-methylsulfanyl-7-(β-D-ribofuranosyl)-7H-pyrrolo[2,3-d]pyrimidine]: the CC50 in data set [1] and in data set [2] was greater than 44 µM each time. Also, the concentration for half-maximal inhibition (IC50) with K562-TAX and in the data set on HepG2 was greater than 20 µM in each case.
Turning to `C#Cc1cn([C@@H]2O[C@H](CO)[C@@H](O)[C@H]2O)c2ncnc(SC)c12` [Compound 2g, 5-Ethynyl-4-methylsulfanyl-7-(β-D-ribofuranosyl)-7H-pyrrolo[2,3-d]pyrimidine], the CC50 in data set [1] and in data set [2] was greater than 44 µM throughout. For the same molecule, the values for the IC50 with K562-TAX and in the data set on HepG2 were 0.07 µM and greater than 15 µM, respectively.
On to `C#Cc1cn([C@@H]2O[C@H](CO)[C@@H](O)[C@H]2O)c2ncnc(NC)c12` [Compound 3g, 5-Ethynyl-4-methylamino-7-(β-D-ribofuranosyl)-7H-pyrrolo[2,3-d]pyrimidine], for which the CC50 in data set [1] and in data set [2] was greater than 44 µM throughout. Also, the IC50 in the data set on K562-TAX is 1.38 µM; in the data set on HepG2, greater than 15 µM.
As to `CN(C)c1ncnc2c1c(-c1cccs1)cn2[C@@H]1O[C@H](CO)[C@@H](O)[C@H]1O` [Compound 4c, 4-Dimethylamino-7-(β-D-ribofuranosyl)-5-(thiophen-2-yl)-7H-pyrrolo[2,3-d]pyrimidine], the CC50 in data set [1] and in data set [2] was greater than 44 µM in each case. The IC50 in the data set on K562-TAX and with HepG2 was greater than 20 µM throughout.
`CN(C)c1ncnc2c1c(-c1ccccc1)cn2[C@@H]1O[C@H](CO)[C@@H](O)[C@H]1O` [Compound 4e, 4-Dimethylamino-5-phenyl-7-(β-D-ribofuranosyl)-7H-pyrrolo[2,3-d]pyrimidine]: the CC50 in data set [1] and in data set [2] was greater than 44 µM in each case. Also, the IC50 with K562-TAX and in the data set on HepG2 was greater than 20 µM throughout.
As to `CN(C)c1ncnc2c1c(-c1cc3ccccc3o1)cn2[C@@H]1O[C@H](CO)[C@@H](O)[C@H]1O` [Compound 4f, 5-(Benzofuran-2-yl)-4-dimethylamino-7-(β-D-ribofuranosyl)-7H-pyrrolo[2,3-d]pyrimidine], the 50% cytotoxic concentration (CC50) in data set [1] and in data set [2] was greater than 44 µM in each case. For the same molecule, the half-maximal inhibitory concentration (IC50) with K562-TAX and with HepG2 was greater than 20 µM in each case.
As to `Cc1ncnc2c1c(-c1ccco1)cn2[C@@H]1O[C@H](CO)[C@@H](O)[C@H]1O` [Compound 5a, 5-(Furan-2-yl)-4-methyl-7-(β-D-ribofuranosyl)-7H-pyrrolo[2,3-d]pyrimidine], the CC50 worked out at 43.6 µM in data set [1] and 6.62 µM in data set [2]. For the same molecule, the half-inhibitory concentration (IC50) was found to be 0.11 µM in the data set on K562-TAX and 0.3 µM in the data set with HepG2.
The corresponding values for `Cc1ncnc2c1c(-c1ccoc1)cn2[C@@H]1O[C@H](CO)[C@@H](O)[C@H]1O` [Compound 5b, 5-(Furan-3-yl)-4-methyl-7-(β-D-ribofuranosyl)-7H-pyrrolo[2,3-d]pyrimidine] are greater than 44 µM, greater than 44 µM, greater than 20 µM and 5.32 µM.
The corresponding values for `Cc1ncnc2c1c(-c1ccsc1)cn2[C@@H]1O[C@H](CO)[C@@H](O)[C@H]1O` [Compound 5d, 4-Methyl-7-(β-D-ribofuranosyl)-5-(thiophen-3-yl)-7H-pyrrolo[2,3-d]pyrimidine] are greater than 44 µM, greater than 44 µM, 5.55 µM and 4.72 µM.
For `Cc1ncnc2c1c(-c1ccccc1)cn2[C@@H]1O[C@H](CO)[C@@H](O)[C@H]1O` [Compound 5e, 4-Methyl-5-phenyl-7-(β-D-ribofuranosyl)-7H-pyrrolo[2,3-d]pyrimidine], in that order: greater than 44 µM, greater than 44 µM, greater than 20 µM and greater than 20 µM.
`Cc1ncnc2c1c(-c1cc3ccccc3o1)cn2[C@@H]1O[C@H](CO)[C@@H](O)[C@H]1O` [Compound 5f, 5-(Benzofuran-2-yl)-4-methyl-7-(β-D-ribofuranosyl)-7H-pyrrolo[2,3-d]pyrimidine]: the CC50 in data set [1] and in data set [2] was greater than 44 µM in each case. The concentration for half-maximal inhibition (IC50) in the data set on K562-TAX and in the data set with HepG2 was greater than 20 µM in each case.
As for `C#Cc1cn([C@@H]2O[C@H](CO)[C@@H](O)[C@H]2O)c2ncnc(C)c12` [Compound 5g, 5-Ethynyl-4-methyl-7-(β-D-ribofuranosyl)-7H-pyrrolo[2,3-d]pyrimidine], the CC50 in data set [1] and in data set [2] was greater than 44 µM in each case. The half-maximal inhibitory concentration (IC50) in the data set on K562-TAX was 0.11 µM; with HepG2, 0.29 µM.
As to `COc1ncnc2c1ccn2[C@@H]1O[C@H](CO)[C@@H](O)[C@H]1O` [RC1, reference compound], the CC50 in data set [1] and in data set [2] was greater than 44 µM in each case. For the same molecule, the concentration for half-maximal inhibition (IC50) with K562-TAX and in the data set on HepG2 was greater than 20 µM in each case.

Source of the values: patent publication US9586986B2, “Substituted 7-deazapurine ribonucleosides for therapeutic uses” (Institute of Organic Chemistry and Biochemistry ASCR, v.v.i., priority 2014, dated 2017).
